Measurements reported in patent US9617256B2 (priority 2007, dated 2017).
Converted amounts (≈) assume the structure as drawn.

How the values were obtained:
AECO001 (ATCC25922) = experiment: MIC broth microdilution, AECO001; type: cell-based, E. coli; conditions: Escherichia coli, ATCC25922, read-out: MIC AECO001
Procedure, shortened: (§1)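 Incubation: 35° C., ambient air, 18-24 h. Medium: cation-adjusted Mueller-Hinton broth with 2-fold serial dilutions of drug. Inoculum: 3×10^5–7×10^5 CFU/mL final, per CLSI microdilution method.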

APAE001 (ATCC27853) = experiment: MIC broth microdilution, APAE001; type: cell-based, P. aeruginosa; conditions: Pseudomonas aeruginosa, ATCC27853, read-out: MIC APAE001, APAE001 is ATCC27853
Procedure, shortened: as §1

[1] = test system: APAE006 in the presence of 8 micrograms per milliliter of polymyxin B nonapeptide; type: cell-based, P. aeruginosa; conditions: in the presence of 8 micrograms per milliliter of polymyxin B nonapeptide
Procedure, shortened: (§2)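 Minimum inhibitory concentrations followed CLSI broth microdilution guidelines: cation-adjusted Mueller-Hinton broth, 2-fold serial drug dilutions, final inoculum 3×10^5–7×10^5 CFU/mL, ambient air at 35° C. for 18-24 hours. Quality-control strains and levofloxacin monitored performance.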

[2] = test system: ASAU001 (laboratory strain of S. aureus, ATCC29213); experiment: MIC broth microdilution, ASAU001; type: cell-based; conditions: Staphylococcus aureus, ATCC29213, read-out: MIC ASAU001
Procedure, shortened: as §1

[3] = test system: AECO063 (ATCC25922 bearing an acrAB mutation); experiment: microbe, parasite or virus in culture; type: cell-based, E. coli; conditions: Escherichia coli, ATCC25922, read-out: MIC AECO063
Procedure, shortened: as §1

AECO001 HSA AGP = experiment: MIC broth microdilution, AECO001 HSA AGP; type: cell-based, E. coli; conditions: Escherichia coli
Procedure, shortened: as §1

[4] = test system: AABA1060 (clinical isolate of Acinetobacter baumannii); experiment: MIC broth microdilution, AABA1060; type: cell-based; conditions: Acinetobacter baumannii, read-out: MIC AABA1060
Procedure, shortened: as §1

[5] = test system: APAE006 (strain of P. aeruginosa in which all efflux pumps are inactivated); experiment: microbe, parasite or virus in culture; type: cell-based; conditions: Pseudomonas aeruginosa, read-out: MIC APAE006, P. aeruginosa, all efflux pumps inactivated
Procedure, shortened: as §2

SMILES | MIC (AECO001 (ATCC25922)) [µg/mL] | MIC (APAE001 (ATCC27853)) [µg/mL] | MIC APAE006 + PMBN [1] | MIC [2] [µg/mL] | MIC [3] [µg/mL] | MIC (AECO001 HSA AGP) [µg/mL] | MIC [4] [µg/mL] | MIC [5] [µg/mL]
C[C@@H](N)[C@H](NC(=O)c1ccc(/C=C/C#Cc2ccncc2)cc1)C(=O)NO [Example 114-8] | < 2 | < 2 | A (MIC's of 2.0 μg/mL or less = A) | 16 to 64 (≈ 43.9 to 176 µM) | < 2 | 2 to 16 (≈ 5.49 to 43.9 µM) | 2 to 16 (≈ 5.49 to 43.9 µM) | < 2
C[C@@H](N)[C@H](NC(=O)c1ccc(/C=C/C#Cc2cccnc2)cc1)C(=O)NO [Example 114-9] | 2 to 16 (≈ 5.49 to 43.9 µM) | < 2 | A (MIC's of 2.0 μg/mL or less = A) | 16 to 64 (≈ 43.9 to 176 µM) | < 2 | 2 to 16 (≈ 5.49 to 43.9 µM) | 2 to 16 (≈ 5.49 to 43.9 µM) | < 2
C[C@@H](N)[C@H](NC(=O)c1ccc(/C=C/C#Cc2ccc(Cl)cc2)cc1)C(=O)NO [Example 114-10] | < 2 | 2 to 16 (≈ 5.03 to 40.2 µM) | A (MIC's of 2.0 μg/mL or less = A) | 16 to 64 (≈ 40.2 to 161 µM) | < 2 | 2 to 16 (≈ 5.03 to 40.2 µM) | 2 to 16 (≈ 5.03 to 40.2 µM) | < 2
C[C@@H](N)[C@H](NC(=O)c1ccc(C#Cc2ccc(CNC3CC3)cc2)cc1)C(=O)NO [Example 115-2] | < 2 | < 2 | A (MIC's of 2.0 μg/mL or less = A) | > 64 | < 2 | 2 to 16 (≈ 4.92 to 39.4 µM) | 2 to 16 (≈ 4.92 to 39.4 µM) | < 2
C[C@@H](N)[C@H](NC(=O)c1ccc(C#Cc2ccc(CN3CCC(F)(F)CC3)cc2)cc1)C(=O)NO [Example 115-3] | < 2 | 2 to 16 (≈ 4.25 to 34 µM) | A (MIC's of 2.0 μg/mL or less = A) | > 64 | < 2 | < 2 | 2 to 16 (≈ 4.25 to 34 µM) | < 2
C[C@@H](N)[C@H](NC(=O)c1ccc(C#Cc2ccc(CN3CCN(C)CC3)cc2)cc1)C(=O)NO [Example 115-4] | 2 to 16 (≈ 4.45 to 35.6 µM) | < 2 | A (MIC's of 2.0 μg/mL or less = A) | > 64 | < 2 | 16 to 64 (≈ 35.6 to 142 µM) | 16 to 64 (≈ 35.6 to 142 µM) | < 2
C[C@@H](N)[C@H](NC(=O)c1ccc(C#Cc2ccc(CN(C)Cc3cccnc3)cc2)cc1)C(=O)NO [Example 115-5] | < 2 | 2 to 16 (≈ 4.24 to 33.9 µM) | A (MIC's of 2.0 μg/mL or less = A) | > 64 | < 2 | 2 to 16 (≈ 4.24 to 33.9 µM) | 2 to 16 (≈ 4.24 to 33.9 µM) | < 2
C[C@@H](N)[C@H](NC(=O)c1ccc(C#Cc2ccc(CN3CCC(O)C3)cc2)cc1)C(=O)NO (stereo partly drawn) [Example 115-6] | 2 to 16 (≈ 4.58 to 36.7 µM) | < 2 | A (MIC's of 2.0 μg/mL or less = A) | > 64 | < 2 | 2 to 16 (≈ 4.58 to 36.7 µM) | 16 to 64 (≈ 36.7 to 147 µM) | < 2
C[C@@H](N)[C@H](NC(=O)c1ccc(C#Cc2ccc(CN3CCN(S(C)(=O)=O)CC3)cc2)cc1)C(=O)NO [Example 115-7] | < 2 | 2 to 16 (≈ 3.89 to 31.2 µM) | A (MIC's of 2.0 μg/mL or less = A) | > 64 | < 2 | 2 to 16 (≈ 3.89 to 31.2 µM) | 2 to 16 (≈ 3.89 to 31.2 µM) | < 2
COC1CCN(Cc2ccc(C#Cc3ccc(C(=O)N[C@H](C(=O)NO)[C@@H](C)N)cc3)cc2)CC1 [Example 115-8] | < 2 | < 2 | A (MIC's of 2.0 μg/mL or less = A) | > 64 | < 2 | 2 to 16 (≈ 4.31 to 34.4 µM) | 2 to 16 (≈ 4.31 to 34.4 µM) | < 2
NCC(=O)NCc1ccc(C#Cc2ccc(C(=O)N[C@@H](CN)C(=O)NO)cc2)cc1 [Example 116-1, (S)—N-(3-amino-1-(hydroxyamino)-1-oxopropan-2-yl)-4-((4-((2-aminoacetamido)methyl)phenyl)ethynyl)benzamide] | 16 to 64 (≈ 39.1 to 156 µM) | 2 to 16 (≈ 4.88 to 39.1 µM) | A (MIC's of 2.0 μg/mL or less = A) | 16 to 64 (≈ 39.1 to 156 µM) | 16 to 64 (≈ 39.1 to 156 µM) | 16 to 64 (≈ 39.1 to 156 µM) | 16 to 64 (≈ 39.1 to 156 µM) | < 2
CNC(=O)[C@@H](NC(=O)c1ccc(C#Cc2ccc(CN3CCOCC3)cc2)cc1)[C@@H](C)N [Example 117-1, N-((1S,2R)-2-Amino-1-methylcarbamoyl-propyl)-4-(4-morpholin-4-ylmethyl-phenylethynyl)-benzamide] | > 64 | > 64 | D (MIC's of greater than 64.0 μg/mL = D) | > 64 | > 64 | > 64 | > 64 | > 64
C[C@@H](N)[C@H](NC(=O)c1ccc(C#Cc2ccc(CN3CCOCC3)cc2)cc1)C(=O)O [Example 117-2, (2S,3R)-3-Amino-2-[4-(4-morpholin-4-ylmethyl-phenylethynyl)-benzoylamino]-butyric acid] | > 64 | > 64 | C (MIC's of greater than 16.0 μg/mL to 64.0 μg/mL = C) | > 64 | > 64 | > 64 | > 64 | > 64
C[C@@H](N)[C@H](NC(=O)c1ccc(C#Cc2ccc(CN3CCC3)cc2)cc1)C(=O)NO [Example 118-1, N-((1S,2R)-2-Amino-1-hydroxycarbamoyl-propyl)-4-(4-azetidin-1-ylmethyl-phenylethynyl)-benzamide] | 16 to 64 (≈ 39.4 to 157 µM) | 2 to 16 (≈ 4.92 to 39.4 µM) | A (MIC's of 2.0 μg/mL or less = A) | 16 to 64 (≈ 39.4 to 157 µM) | 2 to 16 (≈ 4.92 to 39.4 µM) | 16 to 64 (≈ 39.4 to 157 µM) | 16 to 64 (≈ 39.4 to 157 µM) | < 2
C[C@@H](N)[C@H](NC(=O)c1ccc(C#Cc2ccc(CN3CCc4[nH]ncc4C3)cc2)cc1)C(=O)NO [Example 118-2] | < 2 | < 2 | A (MIC's of 2.0 μg/mL or less = A) | 16 to 64 (≈ 33.9 to 135 µM) | < 2 | 16 to 64 (≈ 33.9 to 135 µM) | 2 to 16 (≈ 4.23 to 33.9 µM) | < 2
C[C@@H](N)[C@H](NC(=O)c1ccc(C#Cc2ccc(CN3CCC(F)(F)C3)cc2)cc1)C(=O)NO [Example 118-3] | < 2 | 2 to 16 (≈ 4.38 to 35 µM) | A (MIC's of 2.0 μg/mL or less = A) | 16 to 64 (≈ 35 to 140 µM) | < 2 | 2 to 16 (≈ 4.38 to 35 µM) | 2 to 16 (≈ 4.38 to 35 µM) | < 2
C[C@@H](N)[C@H](NC(=O)c1ccc(C#Cc2ccc(CNCC(C)(C)C)cc2)cc1)C(=O)NO [Example 118-4] | < 2 | < 2 | A (MIC's of 2.0 μg/mL or less = A) | > 64 | < 2 | 2 to 16 (≈ 4.58 to 36.7 µM) | 16 to 64 (≈ 36.7 to 147 µM) | < 2
C[C@@H](N)[C@H](NC(=O)c1ccc(C#Cc2ccc(CNCC3CCCO3)cc2)cc1)C(=O)NO (stereo partly drawn) [Example 118-5] | 2 to 16 (≈ 4.44 to 35.5 µM) | < 2 | A (MIC's of 2.0 μg/mL or less = A) | > 64 | < 2 | 2 to 16 (≈ 4.44 to 35.5 µM) | 16 to 64 (≈ 35.5 to 142 µM) | < 2
